The source of these data is patent US11541028B2, “Peptide pharmaceuticals for treatment of NASH and other disorders” (Mederis Diabetes LLC, priority 2018, dated 2023).

For one data set, the target named is T1, Glucagon R (Homo sapiens, UniProt P47871).
T1 construct: host or cells: CHO cells
Nature of the data set: Cerep cellular assay, stimulation of cAMP levels, glucagon (human, cloned into CHO cells). The data set is classed as cell-based. As to conditions: human receptor in CHO cells (Cerep). As for the experimental part:
Compounds were weighed precisely in an amount of about 1 mg and assayed in standard cellular assays (Cerep SA). The readout was the amount of cAMP generated in the cells treated with the test compounds, in either agonist or antagonist mode. […] The assays are described in Chicchi et al., J. Biol. Chem., 272:7765-7769 (1997) and Runge et al., Br. J. Pharmacol., 138:787-794 (2003).

For data set [1] the following is noted: incubation in human plasma at 30° C, in 4 hours.

Square brackets hold non-standard residues; d marks the D form. Peptide text beside a SMILES is read from it. * marks the point of attachment. GlcA(β-D,1-O-dodecyl) = CCCCCCCCCCCCO[C@@H]1O[C@H](C(=O)*)[C@@H](O)[C@H](O)[C@H]1O; αMeF = C[C@](N)(Cc1ccccc1)C(=O)O; Aib = CC(C)(N)C(=O)O

T1 sequence (P47871 26-477): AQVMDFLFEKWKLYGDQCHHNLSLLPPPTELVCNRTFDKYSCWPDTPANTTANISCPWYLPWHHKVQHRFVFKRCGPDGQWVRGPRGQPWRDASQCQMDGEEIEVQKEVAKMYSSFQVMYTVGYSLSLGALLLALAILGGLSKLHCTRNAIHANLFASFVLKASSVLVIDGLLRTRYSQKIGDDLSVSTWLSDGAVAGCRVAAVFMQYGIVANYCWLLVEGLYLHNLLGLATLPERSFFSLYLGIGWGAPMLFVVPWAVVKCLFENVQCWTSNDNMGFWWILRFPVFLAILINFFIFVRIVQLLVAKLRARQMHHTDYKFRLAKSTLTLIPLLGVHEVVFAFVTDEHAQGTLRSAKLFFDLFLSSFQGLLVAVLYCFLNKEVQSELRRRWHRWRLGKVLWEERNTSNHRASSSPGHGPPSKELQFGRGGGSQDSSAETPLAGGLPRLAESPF

As for `CCCCCCCCCCCCO[C@@H]1O[C@H](C(=O)NCCCC[C@H](NC(=O)C(C)(C)NC(=O)[C@H](CC(=O)O)NC(=O)[C@H](CC(C)C)NC(=O)[C@H](Cc2ccc(O)cc2)NC(=O)[C@H](CCCCN)NC(=O)[C@H](CO)NC(=O)[C@H](Cc2ccc(O)cc2)NC(=O)[C@H](CC(=O)O)NC(=O)[C@H](CO)NC(=O)[C@@H](NC(=O)[C@](C)(Cc2ccccc2)NC(=O)[C@@H](NC(=O)CNC(=O)[C@H](CCC(N)=O)NC(=O)C(C)(C)NC(=O)[C@@H](N)Cc2c[nH]cn2)[C@@H](C)O)[C@@H](C)O)C(N)=O)[C@@H](O)[C@H](O)[C@H]1O` [EU-A391] (H-H[Aib]QGT[αMeF]TSDYSKYLD[Aib]K(GlcA(β-D,1-O-dodecyl))-NH2; N-terminus assumed), the GCGR cellular response entry on Glucagon R is reported as “did not change”.
In the case of `CC[C@H](C)[C@H](NC(=O)[C@H](Cc1ccccc1)NC(=O)[C@H](CCC(=O)O)NC(=O)[C@H](CCCCN)NC(=O)[C@H](C)NC(=O)[C@H](C)NC(=O)[C@H](CCC(N)=O)NC(=O)CNC(=O)[C@H](CCC(=O)O)NC(=O)[C@H](CC(C)C)NC(=O)[C@H](Cc1ccc(O)cc1)NC(=O)[C@H](CO)NC(=O)[C@H](CO)NC(=O)[C@@H](NC(=O)[C@H](CC(=O)O)NC(=O)[C@H](CO)NC(=O)[C@@H](NC(=O)[C@H](Cc1ccccc1)NC(=O)[C@@H](NC(=O)CNC(=O)[C@H](CCC(=O)O)NC(=O)[C@H](C)NC(=O)[C@@H](N)Cc1c[nH]cn1)[C@@H](C)O)[C@@H](C)O)C(C)C)C(=O)N[C@@H](C)C(=O)N[C@@H](Cc1c[nH]c2ccccc12)C(=O)N[C@@H](CC(C)C)C(=O)N[C@H](C(=O)N[C@@H](CCCCN)C(=O)NCC(=O)N[C@@H](CCCNC(=N)N)C(N)=O)C(C)C` [GLP-1(7-36)], the “cleavage of compound in human plasma (compound signal versus time)” value in data set [1] is listed as “essentially complete cleavage”.
